Columns and labels:
PTEN mRNA = test: Antisense activity (pharmacodynamics) of ISIS 116847 in mouse liver; assay type: in vivo, mice
Method: Tissues are homogenized in guanidine isothyocyanate buffer (4 M guanidine isothiocyanate, 25 mM EDTA, 1 M β-mercaptoethanol, 50 mM Tris-HCl, pH 6) immediately following sacrifice. RNA is extracted using RNeasy columns (Qiagen) according to manufacturer's protocol. RNA is eluted from the columns with water. RNA samples are analyzed by fluorescence-based quantitative RT-PCR using an Applied Biosystems 7700 sequence detector. Levels of target RNAs as well as those of cyclophilin A, a housekeeping gene, are determined. Target RNA levels were normalized to cyclophilin levels for each RNA sample. Primers used for determination of PTEN RNA level are as follows: FP 5′ […] 3′ (SEQ ID NO: 3), RP 5′ […] 3′ (SEQ ID NO: 4), and PR 5′ 6FAM-[…]-TAMRA 3′(SEQ ID NO 5). Primers used for determination of cyclophilin A RNA level are as follows: FP 5′ TCGCCGCTTGCTGCA 3′(SEQ ID NO: 6), RP 5′ ATCGGCCGTGATGTCGA 3′(SEQ ID NO: 7), and PR 5′ 6FAM-[…]-TAMRA 3′(SEQ ID NO: 8).

[1] = mouse, in vivo

## 5′-CTGCT agcctctgga TTTGA-3′ (CTGCTAGCCTCTGGATTTGA; chemistry not given here) [ISIS 116847]
PTEN mRNA; co-administered with a nonsense oligonucleotide
  activity of the active antisense oligonucleotide: enhanced
PTEN mRNA; slower infusion, lowest doses
  pharmacodynamics with increased liver drug concentration: did not provide improved pharmacodynamics
[1]
  uptake in whole liver: favored at lower plasma concentrations

Source: patent US20160010086A1, “OLIGOMERIC COMPOUNDS AND EXCIPIENTS” (ISIS PHARMACEUTICALS, INC., priority 2009, published 2016)
